Test results as given in patent US10265311B2, “Methods and compositions for treatment of disorders ameliorated by muscarinic receptor activation” (PureTech Health LLC, priority 2009, dated 2019).

Key:
[1] = with the anticholinergic agent glycopyrrolate; escalating amounts of RS-86; Alzheimer's Disease; cited from earlier work
[2] = test system: normal healthy volunteers; experiment: Phase I double-blind randomized multiple-dose study, xanomeline alone vs xanomeline with trospium chloride: adverse event incidence; type: in vivo, human
Source text: We conducted a Phase I, double-blind, randomized multiple-dose pilot study of xanomeline administered alone compared to xanomeline administered in combination with trospium chloride in normal healthy volunteers. […] The parameters of the study were as follows:
70 total study subjects were randomized, and of these, 68 study subjects received at least one assessment on day 3, which was the first day of xanomeline administration. The demographics of the study subjects were as follows:
The incidence and number of cholinergic adverse events in the evaluable population of the study was as follows, with all p-values based on a chi-squared test, with the exception of those marked with a * which werebased on a Fisher's exact test: […]

[3] = methscopolamine given with xanomeline; Medina et al. 1997; cited from earlier work
[4] = evaluable population, xanomeline 75 mg TID, trospium 20 mg BID or placebo, 7 days

CCN1C(=O)CC2(CCN(C)CC2)C1=O [RS-86]
improvement in cognition [1]: did not result in any improvement in cognition

CCCCCCOc1nsnc1C1=CCCN(C)C1 [Xanomeline + placebo, Xanomeline]
Salivation, % of subjects ([2]; evaluable population, 7 days): 36.4%
Sweating, % of subjects ([2]; evaluable population, 7 days): 48.5%
Any cholinergic TEAEs, # of events [2, 4]: 64
Any cholinergic TEAEs, % of subjects [2, 4]: 63.6%
Any cholinergic TEAEs, n subjects [2, 4]: 21
Any cholinergic TEAEs, % of subjects ([2]; evaluable population, xanomeline 75 mg TID, trospium 20 mg BID or placebo, 7 days, listed as xanomeline+placebo): 63%
Any SAE, # events ([2]; in vivo): 0
Any SAE, % ([2]; in vivo): 0.0%
Any study drug related TEAE, # events ([2]; in vivo): 92
Any study drug related TEAE, % ([2]; in vivo): 69.7%
Max Severity of TEAE Mild, % ([2]; in vivo): (66.7) N/A %
Max Severity of TEAE Moderate, % ([2]; in vivo): (15.2) N/A %
Max Severity of TEAE Severe, % ([2]; in vivo): (0.0) %
Max severity of study drug related TEAE Mild, % ([2]; in vivo): (57/6) N/A
Max severity of study drug related TEAE Moderate, % ([2]; in vivo): (12.1) N/A %
Max severity of study drug related TEAE Severe, % ([2]; in vivo): (0.0) N/A %

C[N+]1(C)[C@@H]2C[C@@H](OC(=O)[C@H](CO)c3ccccc3)C[C@H]1[C@@H]1O[C@@H]12 [methscopolamine]
effect on syncope, a side effect observed with xanomeline [3]: no effect on syncope
